Patent US20230190713A1 (priority 2020, published 2023)
Several values for one entry are separate records, joined by “and”; a condition that tells them apart may be missing. Identical values can stand only once. Entries after “also recorded” stand apart in the source; their conditions may differ. Like-named read-outs stand apart in the source and are kept apart here.

Assays:
[1] = test system: 2019-nCoV (2019BetaCoV/Wuhan/WIV04/2019 strain); assay: microbe, parasite or virus in culture; format: cell-based
[2] = test system: 2019-nCoV, Ebola virus, and avian influenza virus A/GuangZhou/99 (H9N2); assay: organism not typed; format: cell-based; conditions: read-out: EC50 values (level reached)
[3] = test system: 2019-nCoV, Ebola virus, avian influenza virus A/GuangZhou/99 (H9N2); format: cell-based
A/WSN/33(H1N1) virus = test system: A/WSN/33(H1N1) virus; set-up: species or system BALB/c female mice; conditions: mouse, in vivo
[4] = test system: avian influenza virus A/GuangZhou/99 (H9N2); assay: organism not typed; format: cell-based
Ebola virus replicon = assay: microbe, parasite or virus in culture; format: cell-based; conditions: Zaire ebolavirus
2019-nCoV [5] = test system: 2019-nCoV; set-up: species or system K18-hACE male mice; conditions: mouse, in vivo
in vitro = conditions: Syrian hamster
2019-nCoV [6] = test system: 2019-nCoV; set-up: species or system Syrian hamster; conditions: hamster, in vivo
[7] = Severe acute respiratory syndrome coronavirus 2, Vero C1008, read-out: 2019-nCoV EC50 (µM)
[8] = Severe acute respiratory syndrome coronavirus 2, Vero C1008, 48 h
[9] = Severe acute respiratory syndrome coronavirus 2, Vero C1008, read-out: concentration at which replication efficiency of 2019-nCoV is inhibited by 50%
[10] = MDCK, read-out: A/GuangZhou/99(H9N2) EC50 (µM)
[11] = unidentified influenza virus, H9N2, MDCK, read-out: concentration at which replication efficiency of avian influenza virus H9N2 is inhibited by 50%
[12] = BSR-T7/5, read-out: Ebola virus EC50 (µM)
[13] = BSR-T7/5, read-out: concentration at which replication efficiency of Ebola replicon is inhibited by 50%

Work on `Cc1sc(N(C)/N=C/c2ccccc2C(=O)O)nc1-c1ccccc1` [Compound 12] yielded an EC50 [1, 7] of 0.35 µM.

With `O=C(O)c1ccccc1/C=N/Nc1nc(-c2ccccc2Cl)cs1` [Compound 16] the EC50 [2] was roughly 10 nM, the “therapeutic effect in combination with other antiviral drugs” value [3] was “better therapeutic effects” and the EC50 [1, 8] was 1.56 µM. The EC50 [1, 7] was 1.56 µM, the EC50 [1, 9] was 1.55 µM and the “mice treated (survival)” value (A/WSN/33(H1N1) virus) was 50%-100% and 50% and 100%. The EC50 ([4]; MDCK) was 13.2 µM, the EC50 [4, 10] was 13.2 µM and the EC50 [4, 11] was 13.2 µM. For the same compound, the EC50 (Ebola virus replicon; BSR-T7/5, 24 h) was 11.4 µM, the EC50 (Ebola virus replicon; [12]) was 11.4 µM and the EC50 (Ebola virus replicon; [13]) was 15 µM.

In the case of `O=C(O)c1ccccc1/C=N/Nc1nc(-c2cc(Cl)ccc2Cl)cs1` [Compound 55], the EC50 [1, 7] is reported as 1.02 µM, the EC50 [4, 10] is reported as 4.06 µM and the EC50 (Ebola virus replicon; [12]) is reported as 5.4 µM.

Work on `CCCC(C)N(/N=C/c1ccccc1C(=O)O)c1nc(-c2ccccc2Cl)cs1` (stereo not drawn) [Compound 6] yielded an EC50 [1, 7] greater than 100 µM, an EC50 [4, 10] of 22.2 µM and an EC50 (Ebola virus replicon; [12]) of 97 µM.

In the case of `O=C(O)c1cc(C(F)(F)F)ccc1/C=N/Nc1nc(-c2ccccc2Cl)cs1` [Compound 8-1], the EC50 [1, 7] is reported as 5.25 µM, the EC50 [4, 10] is reported as greater than 100 µM and the EC50 (Ebola virus replicon; [12]) is reported as 1.14 µM.

For `CCN(/N=C/c1ccccc1C(=O)O)c1nc(-c2ccccc2Cl)cs1` [Compound 2], the EC50 [1, 7] was 0.16 µM, the EC50 [4, 10] was 0.28 µM and the EC50 (Ebola virus replicon; [12]) was 0.13 µM.

`Cc1sc(N(C)/N=C/c2ccccc2C(=O)O)nc1-c1ccccc1Cl` [Compound 13] showed an EC50 [1, 7] greater than 100 µM and an EC50 [4, 10] of 8.27 µM.

`CCC(C)N(/N=C/c1ccccc1C(=O)O)c1nc(-c2ccccc2Cl)cs1` (stereo not drawn) [Compound 5] showed an EC50 [1, 7] greater than 100 µM, an EC50 [4, 10] of 45.4 µM and an EC50 (Ebola virus replicon; [12]) of 89 µM.

Work on `CN(/N=C/c1ccc(C(F)(F)F)cc1C(=O)O)c1nc(-c2ccccc2Cl)cs1` [Compound 8] yielded an EC50 [1, 7] greater than 100 µM, an EC50 [4, 10] greater than 100 µM and an EC50 (Ebola virus replicon; [12]) of 49 µM.

Compound `CC(C)N(/N=C/c1ccccc1C(=O)O)c1nc(-c2ccccc2Cl)cs1` [Compound 4] has an EC50 [1, 7] of 10.2 µM, an EC50 [4, 10] of 8.37 µM and an EC50 (Ebola virus replicon; [12]) of 5.35 µM.

Work on `Cc1sc(N/N=C/c2ccccc2C(=O)O)nc1-c1ccccc1` [Compound 12-1] yielded an EC50 [1, 7] of 0.52 µM.

With `Cc1ccc(/C=N/Nc2nc(-c3ccccc3Cl)cs2)c(C(=O)O)c1` [Compound 9-1] the EC50 [1, 7] was 0.07 µM, the EC50 [4, 10] was 0.33 µM and the EC50 (Ebola virus replicon; [12]) was 0.89 µM.

In the case of `CN(/N=C/c1ccccc1C(=O)O)c1nc(-c2ccccc2Cl)cs1` [Compound 1], the EC50 [2] is reported as roughly 10 nM, the “therapeutic effect in combination with other antiviral drugs” value [3] is reported as “better therapeutic effects” and the “weight loss and death caused by viral infection” value (2019-nCoV [5]) is reported as “did not significantly improve; also recorded: could not significantly improve”. It also gave a CC50 (in vitro) of 85.8 µM, an EC50 [1, 8] of 0.017 µM and an EC50 [1, 7] of 0.017 µM. For the same compound, the EC50 [1, 9] was 0.017 µM, the EC50 ([4]; MDCK) was 0.021 µM and the EC50 [4, 10] was 0.021 µM. The EC50 [4, 11] was 0.02 µM, the “reduction of viral load in lung tissue” value (2019-nCoV [6]) was “more than 100 fold” and the “viral infection-induced weight loss” value (2019-nCoV [6]) was “significantly slowed”. The EC50 (Ebola virus replicon; BSR-T7/5, 24 h) was 0.018 µM, the EC50 (Ebola virus replicon; [12]) was 0.018 µM and the EC50 (Ebola virus replicon; [13]) was 0.018 µM.

`CN(/N=C/c1ccc(F)cc1C(=O)O)c1nc(-c2ccccc2Cl)cs1` [Compound 10] showed an EC50 [1, 7] of 0.1 µM, an EC50 [4, 10] of 3.2 µM and an EC50 (Ebola virus replicon; [12]) of 0.32 µM.

`O=C(O)c1cc(F)ccc1/C=N/Nc1nc(-c2ccccc2Cl)cs1` [Compound 10-1] showed an EC50 [1, 7] of 0.11 µM, an EC50 [4, 10] of 0.33 µM and an EC50 (Ebola virus replicon; [12]) of 0.97 µM.

For `O=C(O)c1cc(F)c(F)cc1/C=N/Nc1nc(-c2ccccc2Cl)cs1` [Compound 23-1], the EC50 [1, 7] was 5.44 µM.

For `Cc1ccc(/C=N/N(C)c2nc(-c3ccccc3Cl)cs2)c(C(=O)O)c1` [Compound 9], the EC50 [1, 7] was 0.29 µM, the EC50 [4, 10] was 1.37 µM and the EC50 (Ebola virus replicon; [12]) was 2.26 µM.

In the case of `CCCN(/N=C/c1ccccc1C(=O)O)c1nc(-c2ccccc2Cl)cs1` [Compound 3], the EC50 [1, 7] is reported as 2.35 µM, the EC50 [4, 10] is reported as 2.38 µM and the EC50 (Ebola virus replicon; [12]) is reported as 5.42 µM.

Compound `Cc1ccc(/C=N/N(C)c2nc(-c3ccccc3)c(C)s2)c(C(=O)O)c1` [Compound 11] has an EC50 [1, 7] greater than 100 µM.
